# Experimental data as given in patent publication US20240196889A1, “USE OF DI- AND TRI[…] ACIDS IN THE PREVENTION OF BIOFILM FORMATION” (priority 2020, published 2024).
# Tested on: Salmonella genes related to biofilm formation
# Experiment: Microtiter-plate-based GFP promoter fusion assay
# Type: cell-based, Salmonella Typhimurium ATCC 14028
# Settings: 100 μM
# Method: To unravel the mechanism by which agaric acid inhibits biofilm formation, an in house developed reporter GFP-promoter fusion library was screened. This library contains reporters for 130 Salmonella genes related to biofilm formation, including genes regulating matrix production, fimbriae and flagella synthesis, quorum sensing and c-di-GMP regulation (Table 2) [Robijns et al. (2014). Biofouling 30, 605-625.]. A time-lapse of the first 24 h of biofilm formation in microtiter plates was performed to identify genes that are differentially transcribed in the presence of 100 μM agaric acid. As these reporter fusions express the stable GFPmut3 variant as a fluorophore, the measured fluorescence values are the accumulation of fluorescence over time [Robijns et al. (2014). Biofouling 30, 605-625](FIG. 2).
# 1.5 μl of the reporter fusions' ONCs were transferred in three repeats to black polystyrene, clear-bottomed microtiter plates (Greiner bio-one 655096) containing 200 μl of 1/20 TSB with either a final concentration of 100 μM agaric or the corresponding amount of DMSO. Subsequently, the microtiter plates were incubated statically, at 25° C. for 24 h. Every 3 h, the fluorescence (excitation 488 nm, emission 511 nm) and absorbance at 600 nm (OD600) were measured using a Synergy MX multimode reader. For data analysis, blank measurements were subtracted from both the fluorescence (using a promoterless pFPV25 vector as control) and OD600. The ratio between the different OD600 values of the strains/conditions was used to normalize any effects on the fluorescence caused by growth differences in the bacteria. Significant differences in the level of fluorescence between treatment and control were determined using a two-tailed Student t-test (P<0.05).
structure (smiles),measurement,setting,value
"CCCCCCCCCCCCCCCCC(C(=O)O)C(O)(CC(=O)O)C(=O)O (stereo not drawn) [Agaric acid, 2-hydroxynonadecane-1,2,3-tricarboxylic acid]","transcription of class III flagellar genes flgM, flgK and motA",,significantly reduced
same,"transcription of tdcA, flgB, fljB and fliC",,not decreased at consecutive points
same,transcription of flhDC,between 9 h and 15 h,increased compared to the control
same,transcription of csgB and adrA,first 24 h,not influenced
same,transcription of central biofilm regulatory genes CsgD and RpoS,first 24 h of biofilm formation,not downregulated
same,transcription of flagellar sigma factor fliA,from 12 h onwards,significantly inhibited
